The results in this text go back to patent US20210113540A1, “TREATMENT AGENT AND PHARMACEUTICAL COMPOSITION FOR GLIOMA” (NATIONAL UNIVERSITY CORPORATION HOKKAIDO UNIVERSITY, priority 2018, published 2021).

Read-outs that look alike come from different tables or passages of the source.

Experiment [1] deals with Glioma-initiating cell E6R. The experiment in a line: Cell growth test (MTT) on GICR strain E6R. Conditions: Homo sapiens, 72 h. It counts as cell-based. How it is done:
GICR strain: Cell growth test was performed using E6R (Stem Cells. 2016 August; 34(8):2016-25.).
(§1) Cell culture solutions were obtained by mixing a medium prepared by adding various compounds, bFGF (Peprotech, 100-18B) and EGF (Peprotech, 100-15) to DMEM/Ham's F-12 medium (SIGMA, D8062) and a medium prepared by adding FCS (Hyclone, SH30910.03) to DMEM medium (Nacalai tesque, 08458-45) to a concentration of 10% for use.
(§2) Each compound adjusted to a predetermined concentration was dispensed into a 96-well plate (Falcon, 353072) at 80 μL/well, and E6 cells and E6R cells were seeded on the 96-well plate at 1000 cells/80 μL/well. After 3 days, 10 μL of an MTT reagent (DOJINDO, 341-01823) was added, the cells were incubated at 37° C. for 3 hours, the culture solution was removed, and 100 μL of DMSO was added. The absorbance at 570 nm was measured using Bio-Rad iMark (Bio-Rad, 168-1130JA). The growth inhibition rate at each test compound concentration was calculated by the following formula using the absorbance as an index of the viable cell count.
(§3) The growth inhibition rate at each compound concentration was determined, and the 50% growth inhibition concentration GI50 (μmol/L)] was calculated using XLfit. Growth inhibition rate (%)=(Amount of luminescence from wells supplemented with test compound)/(Amount of luminescence from wells supplemented with DMSO)×100
(§4) GIC and GICR strain: Cell growth test was performed using E6, E6R, E16, and E16R (Stem Cells. 2016 August; 34(8): 2016-25.).

Experiment [2] has as its system Glioma-initiating cell E6. The experiment can be described thus: Cell proliferation test (MTT) on GIC strain E6. It counts as cell-based. As to conditions: Homo sapiens, 72 h, MTT after 3 days. On the procedure:
as §4, §1, §2, §3

Experiment [3] has as its system Glioma-initiating cell E16R. The experiment can be described thus: Cell proliferation test (MTT) on GICR strain E16R. It counts as cell-based. Conditions: Homo sapiens, 72 h, MTT after 3 days. On the procedure: as §4, §1, §2, §3
The target in experiment [4] is T1, recombinant human DHODH (Homo sapiens, UniProt Q02127).
T1 construct: DHODH, 31-395aa, Human, His tag, E. coli, ATGP1615; His tag; purchased ATGen ATGP1615; host or cells: E. coli
The experiment in a line: DHODH enzyme assay (DCIP quenching). In kind it is biochemical. Conditions: pH 8.0, DCIP absorbance 600 nm, 50 minutes; read-out: DHODH enzyme inhibition IC50. How it is done: For DHODH enzyme assay, “Benjamin Bader, Wolfgang Knecht, Markus Fries, and Monika Löffler. Expression, Purification, and Characterization of Histidine-Tagged Rat and Human Flavoenzyme Dihydroorotate Dehydrogenase. Protein Expression and Purification, 1998, 13, 414-422” was referred to.
DHODH activity was evaluated using an enzyme assay system that couples with an assay in a blue-coloring dye 2,6-dichlorophenol indophenol (DCIP, MP BIOMEDICALS, MP150118) quenching assay. Purified recombinant human DHODH (DHODH, 31-395aa, Human, His tag, E. coli, ATGP1615) was purchased from ATGen. […] Enzyme activity was assessed by measuring the decrease in DCIP absorbance (600 nm) for 50 minutes using an Envision plate-reading spectrophotometer (PerkinElmer Co., Ltd.). […]
Enzyme reaction inhibition rate (%)=(Amount of luminescence from wells supplemented with test compound)/(Amount of luminescence from wells supplemented with DMSO)×100

Experiment [5] has as its system Glioma-initiating cell E16. The experiment can be described thus: Cell proliferation test (MTT) on GIC strain E16. It counts as cell-based. As to conditions: Homo sapiens, 72 h, MTT after 3 days. On the procedure:
as §4, §1, §2, §3

Setting [6] is: MTT after 3 days, read-out: ER6 GI50.
Where [7] appears, read: class of ER6 GI50, MTT after 3 days, read-out: Evaluation.

T1 sequence (Q02127 31-395): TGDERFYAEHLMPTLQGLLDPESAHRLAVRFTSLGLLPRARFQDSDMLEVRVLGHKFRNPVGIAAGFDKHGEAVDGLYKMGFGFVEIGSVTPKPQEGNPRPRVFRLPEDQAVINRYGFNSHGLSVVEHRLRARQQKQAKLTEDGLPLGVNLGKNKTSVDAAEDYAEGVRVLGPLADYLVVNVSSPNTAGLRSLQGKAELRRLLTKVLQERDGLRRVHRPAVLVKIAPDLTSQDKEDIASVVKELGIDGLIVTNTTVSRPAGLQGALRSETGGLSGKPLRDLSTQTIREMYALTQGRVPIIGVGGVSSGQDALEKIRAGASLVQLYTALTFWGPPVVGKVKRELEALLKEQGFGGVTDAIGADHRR

On to `O=C(O)c1cc(C2CC2)ccc1Nc1ccc2c(cnn2Cc2ccccc2)c1` [Compound 1, 2-((1-benzyl-1h-indazole-5-yl)amino)-5-cyclopropylbenzoate], for which the GI50 is 30.6 nmol/L in experiment [1] (setting [6]) and under 1000 nmol/L in experiment [1] (setting [7]).

Consider `O=C(O)c1cc(C2CC2)cnc1Nc1ccc2c(ccn2CC2CCCCC2)c1` [Compound 2, 2-((1-(cyclohexylmethyl)-1H-indole-5-yl)amino)-5-cyclopropylnicotinic acid], for which the values for the GI50 in experiment [1] (setting [6]) and in experiment [1] (setting [7]) were 82.6 nmol/L and under 1000 nmol/L, respectively.

Turning to `O=C(O)c1cc(C2CC2)cnc1Nc1cccc2c1ccn2-c1ccccc1` [Compound 3, 5-cyclopropyl-2-((1-phenyl-1H-indole-4-yl)amino)nicotinic acid], the GI50 in experiment [1] (setting [6]) was 11 nmol/L; in experiment [1] (setting [7]), under 1000 nmol/L.

As to `Cn1ccc2cc(Nc3ncc(C4CC4)cc3C(=O)O)cc(-c3ccccc3F)c21` [Compound 4, 5-cyclopropyl-2-((7-(2-fluorophenyl)-1-methyl-1H-indole-5-yl)amino)nicotinic acid], the GI50 in experiment [1] (setting [6]) was 1.69 nmol/L; in experiment [1] (setting [7]), under 1000 nmol/L.

With `Cn1ccc2cc(Nc3ncc(C4CC4)cc3C(=O)O)cc(-c3ccc(C(F)(F)F)cc3)c21` [Compound 5], the values for the GI50 in experiment [1] (setting [6]) and in experiment [1] (setting [7]) were under 0.14 nmol/L and under 1000 nmol/L, respectively.

On to `Cn1ccc2cc(Nc3ncc(C4CC4)cc3C(=O)O)cc(-c3cccc(Cl)c3)c21` [Compound 6, 2-((7-(3-chlorophenyl)-1-methyl-1H-indole-5-yl)amino)-5-cyclopropylnicotinic acid], for which the values for the GI50 in experiment [1] (setting [6]) and in experiment [1] (setting [7]) were 2.23 nmol/L and under 1000 nmol/L, respectively.

`Cn1ccc2cc(Nc3ncc(C4CC4)cc3C(=O)O)cc(-c3ccc(OC(F)(F)F)cc3)c21` [Compound 7, 5-cyclopropyl-2-((1-methyl-7-(4-(trifluoromethoxy)phenyl)-1H-indole-5-yl)amino)nicotinic acid]: the GI50 was under 0.14 nmol/L in experiment [1] (setting [6]) and under 1000 nmol/L in experiment [1] (setting [7]).

On to `O=C(O)c1cc(C2CC2)cnc1Nc1cccc2c(-c3ccccc3)cccc12` [Compound 9, 5-cyclopropyl-2-((5-phenylnaphthalene-1-yl)amino)nicotinic acid], for which the GI50 is 4.35 nmol/L in experiment [1] (setting [6]) and under 1000 nmol/L in experiment [1] (setting [7]).

Take `O=C(O)c1cc(C2CC2)cnc1Nc1ccc2c(-c3ccccc3)cccc2c1` [Compound 10, 5-cyclopropyl-2-((5-phenylnaphthalene-2-yl)amino)nicotinic acid]: the GI50 was 1.77 nmol/L in experiment [1] (setting [6]) and under 1000 nmol/L in experiment [1] (setting [7]).

Take `Cn1ccc2cc(Nc3ncc(C4CC4)cc3C(=O)O)cc(-c3ccccc3)c21` [Compound 11, 5-cyclopropyl-2-((1-methyl-7-phenyl-1H-indole-5-yl)amino)nicotinic acid]: the GI50 in experiment [1] (setting [6]) is 4.77 nmol/L; in experiment [1] (setting [7]) it was under 1000 nmol/L.

For the compound `O=C(O)c1cc(C2CC2)cnc1Nc1ccc2c(ccn2-c2cccc(F)c2)c1` [Compound 12, 5-cyclopropyl-2-((1-(3-fluorophenyl)-1H-indole-5-yl)amino)nicotinic acid], the GI50 in experiment [1] (setting [6]) was 23.9 nmol/L; in experiment [1] (setting [7]) it was under 1000 nmol/L.

`O=C(O)c1cc(C2CC2)cnc1Nc1cc2ccn(Cc3ccccc3)c2cc1F` [Compound 13, 2-((1-benzyl-6-fluoro-1H-indole-5-yl)amino)-5-cyclopropylnicotinic acid]: the GI50 is 11.4 nmol/L in experiment [1] (setting [6]) and under 1000 nmol/L in experiment [1] (setting [7]).

In the case of `O=C(O)c1cc(C2CC2)cnc1Nc1c(F)cc2c(ccn2Cc2ccccc2)c1F` [Compound 14, 2-((1-benzyl-4,6-difluoro-1H-indole-5-yl)amino)-5-cyclopropylnicotinic acid], the results for the GI50 in experiment [1] (setting [6]) and in experiment [1] (setting [7]) were 47.6 nmol/L and under 1000 nmol/L, respectively.

With `Cn1ccc2cc(Nc3ncc(C4CC4)cc3C(=O)O)cc(C3=CCOCC3)c21` [Compound 15, 5-cyclopropyl-2-((7-(3,6-dihydro-2H-pyran-4-yl)-1-methyl-1H-indole-5-yl)amino)nicotinic acid], the GI50 in experiment [1] (setting [6]) is 25.9 nmol/L; in experiment [1] (setting [7]), under 1000 nmol/L.

As to `O=C(O)c1cc(C2CC2)cnc1Nc1ccc2c(-c3ccccc3)nccc2c1` [Compound 16, 5-cyclopropyl-2-((1-phenylisoquinoline-6-yl)amino)nicotinic acid], the GI50 was 3.19 nmol/L in experiment [1] (setting [6]) and under 1000 nmol/L in experiment [1] (setting [7]).

Turning to `Cn1ccc2cc(Nc3ncc(C4CC4)cc3C(=O)O)cc(-c3ccc(C#N)cc3)c21` [Compound 17, 2-((7-(4-cyanophenyl)-1-methyl-1H-indole-5-yl)amino)-5-cyclopropylnicotinic acid], the GI50 was 2.96 nmol/L in experiment [1] (setting [6]) and under 1000 nmol/L in experiment [1] (setting [7]).

On to `Cn1ccc2cc(Nc3ncc(C4CC4)cc3C(=O)O)cc(-c3ccc(Cl)cc3)c21` [Compound 18, 2-((7-(4-chlorophenyl)-1-methyl-1H-indole-5-yl)amino)-5-cyclopropylnicotinic acid], for which the GI50 is 0.62 nmol/L in experiment [1] (setting [6]) and under 1000 nmol/L in experiment [1] (setting [7]).

Take `O=C(O)c1cc(C2CC2)ccc1Nc1cccc2c1ccc(=O)n2-c1ccccc1` [Compound 19, 5-cyclopropyl-2-((2-oxo-1-phenyl-1,2-dihydroquinoline-5-yl)amino)benzoic acid]: the figures for the GI50 in experiment [1] (setting [6]) and in experiment [1] (setting [7]) were 5.8 nmol/L and under 1000 nmol/L, respectively.

Turning to `Cn1ccc2cc(Nc3ncc(C4CC4)cc3C(=O)O)cc(C3=CCCCC3)c21` [Compound 20], the GI50 in experiment [1] (setting [6]) was 0.36 nmol/L; in experiment [1] (setting [7]) it was under 1000 nmol/L.

One may read the IC50 as the concentration needed to halve the response being measured. `O=C(O)c1cc(C2CC2)cnc1Nc1ccc2c(ccn2Cc2cccc(F)c2)c1` [Compound 21, 5-cyclopropyl-2-((1-(3-fluorobenzyl)-1H-indole-5-yl)amino)nicotinic acid]: the GI50 in experiment [2] (read-out: GI50 (nmol/L) of Glioma-initiating cell E6) is 100 nmol/L; in experiment [2] (read-out: GI50 class of Glioma-initiating cell E6) it was under 1000 nmol/L; in experiment [3] (read-out: GI50 (nmol/L) of Glioma-initiating cell E16R) it was 1960 nmol/L; in experiment [3] (read-out: GI50 class of Glioma-initiating cell E16R), 1000 to 10000 nmol/L; in experiment [1] (MTT after 3 days, read-out: GI50 (nmol/L) of Glioma-initiating cell E6R), 655 nmol/L; in experiment [1] (MTT after 3 days, read-out: GI50 class of Glioma-initiating cell E6R), under 1000 nmol/L. The figures for the GI50 in experiment [5] (read-out: GI50 (nmol/L) of Glioma-initiating cell E16) and in experiment [5] (read-out: GI50 class of Glioma-initiating cell E16) were 11800 nmol/L and at least 10000 nmol/L, respectively. Also, the IC50 in experiment [4] stood at 28.6 nM.
